Source: ChEMBL document CHEMBL1145170, “Development of a three-dimensional model for the N-methyl-D-aspartate NR2A subunit” (J Med Chem, 2005)

Assays:
[1] = biological target: T1, Glutamate receptor ionotropic, NMDA 2A (Rattus norvegicus, UniProt Q00959); experiment: Inhibition of [3H]Glu binding to rat N-methyl-D-aspartic acid receptor 2A
[2] = biological target: T1, Glutamate receptor ionotropic, NMDA 2A; experiment: Inhibition of [3H]CPP binding to rat N-methyl-D-aspartic acid receptor 2A

T1 sequence (Q00959 whole entry): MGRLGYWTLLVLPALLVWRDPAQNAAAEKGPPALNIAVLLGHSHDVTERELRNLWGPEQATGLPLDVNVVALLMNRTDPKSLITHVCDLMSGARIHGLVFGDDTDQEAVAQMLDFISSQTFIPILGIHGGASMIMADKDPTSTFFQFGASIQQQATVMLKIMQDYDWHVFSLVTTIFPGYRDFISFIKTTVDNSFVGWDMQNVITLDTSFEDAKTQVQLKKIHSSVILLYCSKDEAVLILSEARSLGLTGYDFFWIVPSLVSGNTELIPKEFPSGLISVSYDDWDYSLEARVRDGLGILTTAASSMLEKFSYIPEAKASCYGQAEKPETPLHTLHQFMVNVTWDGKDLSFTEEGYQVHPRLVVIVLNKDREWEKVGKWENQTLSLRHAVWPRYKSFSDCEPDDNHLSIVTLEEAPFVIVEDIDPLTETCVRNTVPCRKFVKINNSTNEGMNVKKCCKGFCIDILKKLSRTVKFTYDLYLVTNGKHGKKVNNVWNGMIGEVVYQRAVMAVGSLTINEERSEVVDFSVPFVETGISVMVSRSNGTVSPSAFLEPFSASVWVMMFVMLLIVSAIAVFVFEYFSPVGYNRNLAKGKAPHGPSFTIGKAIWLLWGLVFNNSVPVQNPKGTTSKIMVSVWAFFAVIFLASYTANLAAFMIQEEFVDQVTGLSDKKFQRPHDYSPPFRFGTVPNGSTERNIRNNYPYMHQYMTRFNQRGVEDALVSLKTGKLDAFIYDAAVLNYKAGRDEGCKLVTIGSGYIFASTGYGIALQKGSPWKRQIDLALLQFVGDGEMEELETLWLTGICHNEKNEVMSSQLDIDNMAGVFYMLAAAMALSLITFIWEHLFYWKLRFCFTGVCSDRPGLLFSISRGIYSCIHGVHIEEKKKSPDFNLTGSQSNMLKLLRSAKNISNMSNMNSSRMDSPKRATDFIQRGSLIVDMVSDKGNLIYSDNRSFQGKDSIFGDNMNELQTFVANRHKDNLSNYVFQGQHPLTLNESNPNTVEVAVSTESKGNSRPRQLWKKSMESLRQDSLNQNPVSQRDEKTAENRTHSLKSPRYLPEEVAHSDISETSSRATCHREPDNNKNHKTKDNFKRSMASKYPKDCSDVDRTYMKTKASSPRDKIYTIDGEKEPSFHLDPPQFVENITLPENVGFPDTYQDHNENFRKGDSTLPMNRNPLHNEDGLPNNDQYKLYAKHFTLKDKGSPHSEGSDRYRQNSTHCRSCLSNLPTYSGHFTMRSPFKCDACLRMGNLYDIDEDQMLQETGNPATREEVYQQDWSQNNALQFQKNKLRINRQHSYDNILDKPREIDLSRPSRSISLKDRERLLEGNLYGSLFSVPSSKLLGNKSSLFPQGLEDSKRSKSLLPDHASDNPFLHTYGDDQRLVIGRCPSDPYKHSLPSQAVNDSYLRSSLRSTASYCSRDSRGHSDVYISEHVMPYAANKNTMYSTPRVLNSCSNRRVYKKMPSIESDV

Structure (SMILES) | IC50 [1] [nM] | IC50 [2] [nM]
CCC/C(=C\[C@@H](N)C(=O)O)CP(=O)(O)O | 230 | 
N[C@H](CC(=O)CP(=O)(O)O)C(=O)O |  | 110
N[C@@H](CCCP(=O)(O)O)C(=O)O | 1500 | 290
O=C(O)[C@@H]1C[C@H](CP(=O)(O)O)CCN1 (single isomer, unassigned) [SELFOTEL] | 840 | 95
C/C(=C\[C@@H](N)C(=O)O)CP(=O)(O)O [CGP-37849] | 220 | 35
